# Reference: US6534447B1, “Herbicidal pyridine compounds” (BASF Aktiengesellschaft, priority 1999, dated 2003)
# What was measured:
# Assay type in all cases: in vivo
# [1] = system: Ipomoea hederacea (IPOHE, morning glory); experiment: Post-emergence herbicidal evaluation; conditions: 3 weeks after treatment
# Experimental: (§1) These acetone solutions are diluted with water and the resulting formulations applied at dosage levels equivalent of about 0.025 to 0.4 kg per hectare of test compound per pot. After spraying the plants are placed on greenhouse benches and are cared for in the usual manner, commensurate with conventional greenhouse practices. From 3 weeks after treatment, the seedling plants are examined and rated according to the rating system provided above. A rating 0 indicates growth as untreated control, a rating 9 indicates death.
# [2] = system: Setaria viridis (SETVI, green foxtail); experiment: Post-emergence herbicidal evaluation; conditions: 3 weeks after treatment
# Experimental: as §1
# [3] = system: Dolium multiflorum (LOLMU, ryegrass); experiment: Post-emergence herbicidal evaluation; conditions: rate 0.100 kg/ha, 3 weeks after treatment
# Experimental: as §1
# [4] = system: Matricaria inodora (MATIN, mayweed); experiment: Post-emergence herbicidal evaluation; conditions: 3 weeks after treatment
# Experimental: as §1
# [5] = system: Echinochloa grus galli (ECHCG, barnyard grass); experiment: Post-emergence herbicidal evaluation; conditions: 3 weeks after treatment
# Experimental: as §1
# [6] = system: Abutilon theophrasti (ABUTH, velvetleaf); experiment: Post-emergence herbicidal evaluation; conditions: 3 weeks after treatment
# Experimental: as §1
# [7] = system: Galium aparine (GALAP, cleaver); experiment: Post-emergence herbicidal evaluation; conditions: 3 weeks after treatment
# Experimental: as §1
# [8] = system: Alopecurus myosuroides (ALOMY, black grass); experiment: Post-emergence herbicidal evaluation; conditions: 3 weeks after treatment
# Experimental: as §1
# [9] = system: eight weed species; experiment: Pre-emergence herbicidal evaluation, overall weed control; conditions: crop selective dose of 0.1 kg/ha
# Text: (§2) The pre-emergence herbicidal activity of the compounds of the present invention is exemplified by the following test in which the seeds of a variety of monocotyledonous and dicotyledonous plants are seperately mixed with potting soil and planted on top of approximately one inch of soil in separate post. After planting, the pots are sprayed with the selected aqueous acetone solution. containing test compound in sufficient quantity to provide the equivalent of about 0.025 to 0.4 kg per hectare of test compound per pot. The treated pots are then placed on greenhouse benches, watered and cared for in accordance with conventional greenhouse procedures. From 3 weeks after treatment, the tests are terminated and each pot is examined and rated according to the rating system set forth below.
# Thus, there is evidence for the good potential of the compounds of the invention for excellent cross spectrum control of both grasses and broadleaf weeds in key crops.
# [10] = system: Triticum aestivum (TRZAW, winter wheat); experiment: Pre-emergence herbicidal evaluation (crop); conditions: 3 weeks after treatment
# Text: as §2, with “below. [table] [table]” for “below.”
# [11] = system: Zea mays (ZEAMX, maize); experiment: Pre-emergence herbicidal evaluation (crop); conditions: 3 weeks after treatment
# Text: as §2, with “below. [table] [table]” for “below.”
# [12] = system: Glycine max (GLXMA, soyabeans); experiment: Pre-emergence herbicidal evaluation (crop); conditions: 3 weeks after treatment
# Text: as §2, with “below. [table] [table]” for “below.”
# [13] = system: Ipomoea hederacea (IPOHE, morning glory); experiment: Pre-emergence herbicidal evaluation; conditions: 3 weeks after treatment
# Text: as §2, with “below. [table] [table]” for “below.”
# [14] = system: Setaria viridis (SETVI, green foxtail); experiment: Pre-emergence herbicidal evaluation; conditions: 3 weeks after treatment
# Text: as §2, with “below. [table] [table]” for “below.”
# [15] = system: Stellaria media (STEME, chickweed); experiment: Pre-emergence herbicidal evaluation; conditions: 3 weeks after treatment
# Text: as §2, with “below. [table] [table]” for “below.”
# [16] = system: Matricaria inodora (MATIN, mayweed); experiment: Pre-emergence herbicidal evaluation; conditions: 3 weeks after treatment
# Text: as §2, with “below. [table] [table]” for “below.”
# [17] = system: Echinochloa grus galli (ECHCG, barnyard grass); experiment: Pre-emergence herbicidal evaluation; conditions: 3 weeks after treatment
# Text: as §2, with “below. [table] [table]” for “below.”
# [18] = system: Abutilon theophrasti (ABUTH, velvetleaf); experiment: Pre-emergence herbicidal evaluation; conditions: 3 weeks after treatment
# Text: as §2, with “below. [table] [table]” for “below.”
# [19] = system: Galium aparine (GALAP, cleaver); experiment: Pre-emergence herbicidal evaluation; conditions: 3 weeks after treatment
# Text: as §2, with “below. [table] [table]” for “below.”
# [20] = system: Alopecurus myosuroides (ALOMY, black grass); experiment: Pre-emergence herbicidal evaluation; conditions: 3 weeks after treatment
# Text: as §2, with “below. [table] [table]” for “below.”
structure (smiles),measurement,setting,value
"Cc1cc(OCCSC(F)(F)F)nc(Oc2cc(C(F)(F)F)nn2C)c1 [Example 1, 2-(1-methyl-3-trifluoromethylpyrazol-5-yloxy)-6-(2-trifluoromethylthioethoxy)-4-methylpyridine]",IPOHE rating,[1]; rate 0.025 kg/ha,8 (8 - Approaching complete kill)
same,IPOHE rating,[1]; rate 0.100 kg/ha,8 (8 - Approaching complete kill)
same,IPOHE rating,[1]; rate 0.400 kg/ha,9 (9 - Complete kill)
same,SETVI rating,[2]; rate 0.025 kg/ha,5 (5 - Definite injury)
same,SETVI rating,[2]; rate 0.100 kg/ha,8 (8 - Approaching complete kill)
same,SETVI rating,[2]; rate 0.400 kg/ha,8 (8 - Approaching complete kill)
same,LOLMU rating,[3],8 (8 - Approaching complete kill)
same,MATIN rating,[4]; rate 0.025 kg/ha,5 (5 - Definite injury)
same,MATIN rating,[4]; rate 0.100 kg/ha,7 (7 - Good herbicidal effect)
same,MATIN rating,[4]; rate 0.400 kg/ha,8 (8 - Approaching complete kill)
same,ECHCG rating,[5]; rate 0.025 kg/ha,6 (6 - Herbicidal effect)
same,ECHCG rating,[5]; rate 0.100 kg/ha,9 (9 - Complete kill)
same,ECHCG rating,[5]; rate 0.400 kg/ha,9 (9 - Complete kill)
same,ABUTH rating,[6]; rate 0.025 kg/ha,5 (5 - Definite injury)
same,ABUTH rating,[6]; rate 0.100 kg/ha,6 (6 - Herbicidal effect)
same,ABUTH rating,[6]; rate 0.400 kg/ha,6 (6 - Herbicidal effect)
same,GALAP rating,[7]; rate 0.025 kg/ha,2 (2 - Slight effect)
same,GALAP rating,[7]; rate 0.100 kg/ha,5 (5 - Definite injury)
same,GALAP rating,[7]; rate 0.400 kg/ha,8 (8 - Approaching complete kill)
same,ALOMY rating,[8]; rate 0.025 kg/ha,4 (4 - Injury)
same,ALOMY rating,[8]; rate 0.100 kg/ha,7 (7 - Good herbicidal effect)
same,ALOMY rating,[8]; rate 0.400 kg/ha,8 (8 - Approaching complete kill)
same,weed control (in words),[9],complete control
same,TRZAW rating,[10]; rate 0.025 kg/ha,1 (1 - Trace effect)
same,TRZAW rating,[10]; rate 0.100 kg/ha,2 (2 - Slight effect)
same,TRZAW rating,[10]; rate 0.400 kg/ha,3 (3 - Moderate effect)
same,ZEAMX rating,[11]; rate 0.025 kg/ha,2 (2 - Slight effect)
same,ZEAMX rating,[11]; rate 0.100 kg/ha,4 (4 - Injury)
same,ZEAMX rating,[11]; rate 0.400 kg/ha,5 (5 - Definite injury)
same,GLXMA rating,[12]; rate 0.025 kg/ha,2 (2 - Slight effect)
same,GLXMA rating,[12]; rate 0.100 kg/ha,3 (3 - Moderate effect)
same,GLXMA rating,[12]; rate 0.400 kg/ha,4 (4 - Injury)
same,IPOHE rating,[13]; rate 0.025 kg/ha,6 (6 - Herbicidal effect)
same,IPOHE rating,[13]; rate 0.100 kg/ha,9 (9 - Complete kill)
same,IPOHE rating,[13]; rate 0.400 kg/ha,9 (9 - Complete kill)
same,SETVI rating,[14]; rate 0.025 kg/ha,9 (9 - Complete kill)
same,SETVI rating,[14]; rate 0.100 kg/ha,9 (9 - Complete kill)
same,SETVI rating,[14]; rate 0.400 kg/ha,9 (9 - Complete kill)
same,STEME rating,[15]; rate 0.025 kg/ha,9 (9 - Complete kill)
same,STEME rating,[15]; rate 0.100 kg/ha,9 (9 - Complete kill)
same,STEME rating,[15]; rate 0.400 kg/ha,9 (9 - Complete kill)
same,MATIN rating,[16]; rate 0.025 kg/ha,9 (9 - Complete kill)
same,MATIN rating,[16]; rate 0.100 kg/ha,9 (9 - Complete kill)
same,MATIN rating,[16]; rate 0.400 kg/ha,9 (9 - Complete kill)
same,ECHCG rating,[17]; rate 0.025 kg/ha,7 (7 - Good herbicidal effect)
same,ECHCG rating,[17]; rate 0.100 kg/ha,9 (9 - Complete kill)
same,ECHCG rating,[17]; rate 0.400 kg/ha,9 (9 - Complete kill)
same,ABUTH rating,[18]; rate 0.025 kg/ha,8 (8 - Approaching complete kill)
same,ABUTH rating,[18]; rate 0.100 kg/ha,9 (9 - Complete kill)
same,ABUTH rating,[18]; rate 0.400 kg/ha,9 (9 - Complete kill)
same,GALAP rating,[19]; rate 0.025 kg/ha,6 (6 - Herbicidal effect)
same,GALAP rating,[19]; rate 0.100 kg/ha,8 (8 - Approaching complete kill)
same,GALAP rating,[19]; rate 0.400 kg/ha,8 (8 - Approaching complete kill)
same,ALOMY rating,[20]; rate 0.025 kg/ha,7 (7 - Good herbicidal effect)
same,ALOMY rating,[20]; rate 0.100 kg/ha,9 (9 - Complete kill)
same,ALOMY rating,[20]; rate 0.400 kg/ha,9 (9 - Complete kill)
